Literature values, collected in patent US20080317843A1, “NANOPARTICULATE FORMULATIONS OF MODAFINIL” (Elan Corporation plc, priority 2006, published 2008).

How the values were obtained:
[1] = for share of trough concentration (Cminss) of circulating modafinil: after once daily dosing
CYP2C19 = CYP2C19 (Homo sapiens, UniProt P33261)
[2] = test system: receptors for benzodiazepines; conditions: pharmacologically relevant concentrations
[3] = molecular target: receptors for histamine-3 (Homo sapiens, UniProt Q9Y5N1); conditions: pharmacologically relevant concentrations
Chain of receptors for histamine-3 (Q9Y5N1 whole entry): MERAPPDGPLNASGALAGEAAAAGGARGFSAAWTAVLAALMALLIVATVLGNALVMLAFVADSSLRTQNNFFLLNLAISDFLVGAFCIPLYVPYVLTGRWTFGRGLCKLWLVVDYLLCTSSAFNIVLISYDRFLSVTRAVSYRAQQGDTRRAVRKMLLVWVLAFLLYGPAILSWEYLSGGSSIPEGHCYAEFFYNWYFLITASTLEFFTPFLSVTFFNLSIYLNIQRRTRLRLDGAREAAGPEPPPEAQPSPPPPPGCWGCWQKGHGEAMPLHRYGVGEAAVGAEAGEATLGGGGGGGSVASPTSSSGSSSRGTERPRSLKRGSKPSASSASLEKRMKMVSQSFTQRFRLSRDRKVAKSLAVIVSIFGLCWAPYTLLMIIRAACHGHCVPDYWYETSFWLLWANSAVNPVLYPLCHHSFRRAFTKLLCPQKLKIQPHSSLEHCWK

receptors for serotonin = conditions: pharmacologically relevant concentrations
MAO-B = molecular target: T1, MAO-B (Homo sapiens, UniProt P27338)
T1 sequence (P27338 1-520): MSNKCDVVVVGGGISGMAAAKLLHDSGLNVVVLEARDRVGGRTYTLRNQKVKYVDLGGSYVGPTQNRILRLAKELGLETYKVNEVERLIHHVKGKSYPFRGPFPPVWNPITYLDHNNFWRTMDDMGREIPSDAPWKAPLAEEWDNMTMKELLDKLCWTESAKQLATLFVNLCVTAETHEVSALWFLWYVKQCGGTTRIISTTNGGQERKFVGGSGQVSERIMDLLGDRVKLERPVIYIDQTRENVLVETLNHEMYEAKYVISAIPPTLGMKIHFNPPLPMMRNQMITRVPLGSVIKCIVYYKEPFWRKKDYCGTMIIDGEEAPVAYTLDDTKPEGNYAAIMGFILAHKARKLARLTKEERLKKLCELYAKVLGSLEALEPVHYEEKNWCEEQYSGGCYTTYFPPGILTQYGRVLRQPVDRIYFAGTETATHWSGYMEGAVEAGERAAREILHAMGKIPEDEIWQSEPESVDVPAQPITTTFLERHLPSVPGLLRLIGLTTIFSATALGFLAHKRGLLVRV

receptors for adenosine = conditions: pharmacologically relevant concentrations
receptors for GABA = conditions: pharmacologically relevant concentrations
receptors for melatonin = conditions: pharmacologically relevant concentrations
CYP3A4 = conditions: chronic administration of modafinil 400 mg; substrates given orally
[4] = test system: receptors for norepinephrine; conditions: pharmacologically relevant concentrations

Chain of CYP2C19 (P33261 whole entry): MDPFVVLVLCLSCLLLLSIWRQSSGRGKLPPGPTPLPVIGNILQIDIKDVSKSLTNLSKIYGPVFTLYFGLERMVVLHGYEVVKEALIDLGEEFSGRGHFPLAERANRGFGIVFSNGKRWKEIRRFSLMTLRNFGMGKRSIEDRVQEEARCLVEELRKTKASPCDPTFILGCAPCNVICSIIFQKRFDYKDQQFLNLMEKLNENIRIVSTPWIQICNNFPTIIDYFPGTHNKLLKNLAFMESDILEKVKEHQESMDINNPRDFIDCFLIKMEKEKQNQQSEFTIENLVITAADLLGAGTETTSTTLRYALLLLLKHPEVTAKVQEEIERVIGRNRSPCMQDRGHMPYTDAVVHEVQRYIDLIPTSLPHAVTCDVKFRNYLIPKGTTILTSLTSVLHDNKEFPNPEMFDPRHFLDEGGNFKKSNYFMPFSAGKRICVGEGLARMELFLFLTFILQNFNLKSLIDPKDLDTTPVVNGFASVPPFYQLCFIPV

For `NC(=O)C[S+]([O-])C(c1ccccc1)c1ccccc1` (single isomer, unassigned) [d-isomer], the “share of trough concentration (Cminss) of circulating modafinil” value [1] is listed as 10%.

In the case of `NC(=O)C[S@@+]([O-])C(c1ccccc1)c1ccccc1` (single isomer, unassigned) [l-isomer], the “share of trough concentration (Cminss) of circulating modafinil” value [1] is given as 90%, the “total exposure relative to the d-isomer” value ([1]; at steady state) is given as “approximately three times” and the “half-life relative to the d-isomer” value ([1]; humans) is given as “approximately three times”.

For `O=C(C[S+]([O-])C(c1ccccc1)c1ccccc1)NO` (centres unmarked) [Adrafinil, 2-(diphenylmethyl) sulfinyl acetohydroxamic acid], the solubility in acetone is given as “sparingly to slightly soluble”, the solubility in cyclohexane is given as “practically insoluble” and the solubility in methanol is given as “sparingly to slightly soluble”. For the same compound, the solubility in water was “practically insoluble”.

In the case of `NC(=O)CS(=O)(=O)C(c1ccccc1)c1ccccc1` [modafinil sulfone], the “inhibition of CYP2C19” value (CYP2C19) is given as “reversible inhibitors”.

In the case of `NC(=O)C[S+]([O-])C(c1ccccc1)c1ccccc1` (centres unmarked) [modafinil, 2-[(diphenylmethyl)sulfinyl]acetamide], the “binding to receptors for benzodiazepines” value [2] is given as “does not bind”, the “binding to receptors for histamine-3” value [3] is given as “does not bind” and the “inhibition of the activities of phosphodiesterases II-V” value (phosphodiesterases II-V) is given as “does not inhibit”. For the same compound, the “binding to receptors for serotonin” value (receptors for serotonin) was “does not bind”, the “inhibition of the activity of MAO-B” value (MAO-B) was “does not inhibit” and the “binding to receptors for adenosine” value (receptors for adenosine) was “does not bind”. The “binding to receptors for GABA” value (receptors for GABA) was “does not bind”, the solubility in acetone was “sparingly to slightly soluble” and the aqueous insolubility (aqueous) was under 1000 µg/mL. The solubility in cyclohexane was “practically insoluble”, the solubility in methanol was “sparingly to slightly soluble” and the solubility in water was “practically insoluble”. For the same compound, the “binding to receptors for melatonin” value (receptors for melatonin) was “does not bind”, the “systemic exposure to two CYP3A4 substrates, ethinyl estradiol, and triazolam” value (CYP3A4) was “decrease” and the “inhibition of CYP2C19” value (CYP2C19) was “reversible inhibitors”. For the same compound, the effective elimination half-life ([1]; after multiple doses) was “about 15 hours”, the “decrease in oral clearance (CL/F)” value ([1]; single dose 200 mg, 12 subjects mean age 63 years vs matched younger subjects) was about 20% and the “delay of absorption and (tmax) if taken with food” value ([1]; with food) was “delayed by approximately one hour”. For the same compound, the “effect of food on overall bioavailability” value ([1]; with food) was “no effect” and the “binding to receptors for norepinephrine” value [4] was “does not bind”.
